Tests used:
[1] = Acute toxicity of test compounds (oral LD50); details: mouse, in vivo, male ICR mice, 0.2% CMC-Na suspension, dead mice counted for 14 days, read-out: LD50 of Test Compound (column head prints ED50)
Protocol: Each test compound was suspended in 0.2% CMC--Na solution in various concentrations to make test suspensions. The test suspensions were administered orally to male ICR mice (10 in each group) at various doses. The number of dead mice was counted for 14 days and the value of median lethal dose (LD50, g/kg) was calculated by the Hitchifield-Wilcoxon method.

[2] = system: serum ALT increase induced by CCl4; assay: Determination of 50% effective dose (ED50) against CCl4-induced serum ALT increase; type: in vivo; details: Mus musculus; mice, oral 50, 25, 12.5 or 6.25 mg/kg, 6 h before CCl4; serum ALT 24 h after CCl4; estimated from dose-response curves; read-out: ED50 (50% effective dose of test compound)
Protocol: The various doses of test compounds were administered to mice, followed by the treatment with CCl4 after 6 hours. 24 Hours after the CCl4 treatment, the serum ALT level of the animals were determined. The hepatoprotective effect of the test compounds and the doses were plotted to form doseresponse curves, from which the ED50 doses of the test compounds were estimated.
The experimental animals were divided into the normal, the CCl4 treated and the test compound treated groups. Each group consisted of 8 mice with body weight of 20-25 grams. The test compounds were suspended in 0.2% CMC--Na solution and administered orally at a dose of 50 mg, 25 mg, 12.5 mg or 6.25 mg/125 ml/kg body weight. Only the vehicle, 0.2% CMC--Na solution, was administered to the normal and to the CCl4 treated group instead of the test compound suspension. 6 Hours later, the CCl4 solution in olive oil was administered orally to the CCl4 treated and the test compound treated groups at the dose of 50 ul/25 ml oilve oil/kg body weight. The norm group was administered olive oil only at the same dose. 24 Hours after the CCl4 administration, blood samples were collected from the orbital sinuses of the animals and the sera were obtained by centrifugation. The serum ALT activities were monitored and the hepatoprotective effect of the test compounds were calculated by the same method as described in experiment 1. The percentages were plotted against the corresponding doses of the test compounds to make dose-response curves, from which the 50% effective dose of test compound was estimated.

[3] = system: serum alanine aminotransferase (ALT) increase induced by CCl4; assay: Protective effect against acute hepatic damage induced by carbon tetrachloride (suppression of serum ALT increase); type: in vivo; details: Mus musculus; mice, oral 50 mg/kg in 0.2% CMC-Na, 6 h before oral CCl4 (50 ul/kg); serum ALT 24 h after CCl4; read-out: Inhibitory (%) (protective effect of test compound against increase of serum ALT activity induced by CCl4)
Protocol: Carbon tetrachloride (CCl4) is a well-known hepatotoxic agent, thus widely used to produce experimental animal models for screening the potential drugs acting upon hepatic diseases. In this experiment test compounds were administered to mice prior to treatment with CCl4. 24 Hours after the CCl4 treatment, the animals were sacrificed and serum alanine aminotransferase (ALT) levels were determined. The hepatoprotective effect of a test compound was evaluated by the suppressive action against the increase of serum ALT induced by CCl4.
The experimental animals were divided into the normal, the CCl4 treated and the test compound treated groups. Each group consisted of 8 mice with body weight of 20-25 grams. The test compounds were suspended in 0.2% sodium carboxymethylcellulose (CMC--Na) solution and administered orally at the dose of 50 mg/125 ml/kg body weight. Only the vehicle 0.2% CMC--Na solution, was administered to the normal and to the CCl4 treated group instead of the test compound suspension.
6 Hours after the drug administration, the CCl4 solution in olive oil was administered orally to the CCl4 treated-group and the test compound treated group at the dose of 50 ul/25 ml olive oil/kg body weight. The normal group was administered with olive oil only at the same dose. 24 Hours after the CCl4 administration, blood samples were collected from the orbital sinus of the animals and the sera were monitored using an automatic blood analyzer (Gilford, SBA 300). The hepatoprotective effect of the test compounds was expressed by the suppressive percentage against the increase of serum ALT level induced by CCl4 calculated by the following formula; [formula]

## CC(C)OC(=O)C(C(N)=O)=C1SCS1 [Example 13, Isopropyl 2-(1,3-dithietan-2-ylidene)-2-carbamoylacetate]
[1]
  LD50 at 336 h: < 5000 mg/kg
[2]
  ED50: > 50 mg/kg
[3]
  inhibition in vivo at 50 mg/kg: 28%

## CC(C)OC(=O)C(C(=O)NCc1ccccc1)=C1SCS1 [Example 15, Isopropyl 2-(1,3-dithietan-2-ylidene)-2-(N-benzylcarbamoyl)acetate]
[2]
  ED50: 10 mg/kg
[3]
  inhibition in vivo at 50 mg/kg: 97%

## CC(C)OC(=O)C(C(=O)Nc1ccccc1)=C1SCS1 [Example 18, Isopropyl 2-(1,3-dithietan-2-ylidene)-2-(N-phenylcarbamoyl)acetate]
[2]
  ED50: 7 mg/kg
[3]
  inhibition in vivo at 50 mg/kg: 100%

## CC(C)OC(=O)C(C(=O)Nc1ccc(C(F)(F)F)cc1)=C1SCS1 [Example 19, Isopropyl 2-(1,3-dithietan-2-ylidene)-2-[N-(4-trifluoromethylphenyl)carbamoyl]acetate]
[2]
  ED50: 6.25 mg/kg
[3]
  inhibition in vivo at 50 mg/kg: 100%

## CC(C)OC(=O)C(C(=O)Nc1ccc(C(F)(F)F)cc1)=C1SCCS1 [Example 21, Isopropyl 2-(1,3-dithiolan-2-ylidene)-2-[N-(4-trifluoromethylphenyl)carbamoyl]acetate]
[2]
  ED50: < 50 mg/kg
[3]
  inhibition in vivo at 50 mg/kg: 98%

## CC(C)OC(=O)C(C(=O)Nc1nccs1)=C1SCS1 [Example 22, Isopropyl 2-(1,3-dithietan-2-ylidene)-2-[N-(2-thiazolyl)carbamoyl]acetate]
[1]
  LD50 at 336 h: > 5000 mg/kg
[2]
  ED50: < 6.25 mg/kg
[3]
  inhibition in vivo at 50 mg/kg: 100%

## Cc1csc(NC(=O)C(C(=O)OC(C)C)=C2SCS2)n1 [Example 24, Isopropyl 2-(1,3-dithietan-2-ylidene)-2-[N-(4-methyl-2-thiazolyl)carbamoyl]acetate]
[1]
  LD50 at 336 h: > 5000 mg/kg
[2]
  ED50: < 6.25 mg/kg
[3]
  inhibition in vivo at 50 mg/kg: 100%

## Cc1csc(NC(=O)C(C(=O)OC(C)C)=C2SCCS2)n1 [Example 26, Isopropyl 2-(1,3-dithiolan-2-ylidene)-2-[N-(4-methyl-2-thiazolyl)carbamoyl]acetate]
[2]
  ED50: < 50 mg/kg
[3]
  inhibition in vivo at 50 mg/kg: 98%

## CC(C)OC(=O)C(C(=O)Nc1nc(-c2ccccc2)cs1)=C1SCS1 [Example 27, Isopropyl 2-(1,3-dithietan-2-ylidene)-2-[N-(4-phenyl-2-thiazolyl)carbamoyl]acetate]
[2]
  ED50: > 50 mg/kg
[3]
  inhibition in vivo at 50 mg/kg: 11%

## CC(C)OC(=O)C(C(=O)Nc1nncs1)=C1SCS1 [Example 28, Isopropyl 2-(1,3-dithietan-2-ylidene)-2-[N-(1,3,4-thiadiazol-2-yl)carbamoyl]acetate]
[1]
  LD50 at 336 h: > 5000 mg/kg
[2]
  ED50: < 6.25 mg/kg
[3]
  inhibition in vivo at 50 mg/kg: 100%

## CC(C)OC(=O)C(C(=O)Nc1ccccn1)=C1SCS1 [Example 29, Isopropyl 2-(1,3-dithietan-2-ylidene)-2-[N-(2-pyridyl)carbamoyl]acetate]
[1]
  LD50 at 336 h: > 5000 mg/kg
[2]
  ED50: 10 mg/kg
[3]
  inhibition in vivo at 50 mg/kg: 100%

## CC(C)OC(=O)C(C(=O)Nc1ccccn1)=C1SCCS1 [Example 32, Isopropyl 2-(1,3-dithiolan-2-ylidene)-2-[N-(2-pyridyl)carbamoyl]acetate]
[2]
  ED50: < 50 mg/kg
[3]
  inhibition in vivo at 50 mg/kg: 85%

Reference: patent publication US5103013A, “Dithioketene derivatives, pharmaceutical compositions containing the same and uses thereof” (Yuhan Corporation, Ltd., priority 1988, dated 1992)
